Series [1] is described as follows: H+/Na+ transport assay of bead-derived peptides (one-point).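 Also: relative to parent gramicidin A activity set to 1.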 Format: biochemical. Further details: key: relative activity; mean of two control wells = 1.00. Particulars: bead-derived peptide solution, EYPC/EYPG LUVs. The method, boiled down:
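One-point screen: peptide + pyranine-loaded LUVs, 30 min RT with vortexing, 96-well. Read-out is fluorescence intensity scaled as 100 × (Ix – I0)/(Imax – I0). Imax from Triton X-100, I0 from untreated vesicles, and the mean of the two control wells is set to 1.00.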

Series [2] has as its system P388 mouse leukemia cells. Particulars: 92 h. In outline: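 First, library peptide stocks are diluted 250-fold in RPMI1640 with 10% heat-inactivated FBS. Next, they are mixed with P388 cells to give 1 × 10^4 cells/mL and incubated 92 h at 37 °C, 5% CO2. Finally, viability (%) is scored by WST-1 absorbance at 415 nm.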
The subject of series [3] is Streptococcus pyogenes SSI-9. Put plainly: Antibacterial activity assay of bead-derived peptides (three concentrations). Set-up: key: +++: inhibition by the 640-fold diluted peptide solution; ++: inhibition by the 160-fold diluted solution; +: inhibition by the 40-fold diluted solution; -: no inhibition. Format: cell-based. The note with it: S. pyogenes, bead-derived peptide solution, three concentrations. The method, boiled down: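 Bead-derived library peptide stocks in DMSO were tested undiluted and after 4- and 16-fold DMSO dilution against S. pyogenes SSI-9 (2 × 10^5 CFU/well) in cation-adjusted Mueller Hinton Broth with 5% laked horse blood. After 18 h at 37 °C, wells were scored for precipitation of grown cells.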

Where a SMILES comes first, the peptide text is derived from it. [ ]: non-standard residue; d: D form. The star is where a group is joined. NHCH2CH2OH = OCCN*; For = O=C*

9 molecules from article PMC7531004, “Discovery of gramicidin A analogues with altered activities by multidimensional screening of a one-bead-one-compound library” (Nature Communications, 2020) can be followed below.

On to `CC(C)C[C@@H](NC(=O)[C@H](C)NC(=O)[C@H](NC(=O)[C@H](C)NC(=O)CNC(=O)[C@@H](NC=O)C(C)C)C(C)C)C(=O)N[C@H](C(=O)N[C@H](CC(C)C)C(=O)N[C@@H](Cc1c[nH]c2ccccc12)C(=O)N[C@@H](C(=O)N[C@@H](Cc1c[nH]c2ccccc12)C(=O)N[C@@H](C(=O)N[C@@H](Cc1c[nH]c2ccccc12)C(=O)N[C@H](CC(C)C)C(=O)N[C@@H](Cc1c[nH]c2ccccc12)C(=O)NCCO)C(C)C)[C@H](C)O)C(C)C` [compound 6572] (For-VGA[dV]A[dL]V[dL]W[dT]W[dV]W[dL]W-NHCH2CH2OH), for which, in series [1], the “H+/Na+ transport activity normalized against the value of 1 (1.00)” value (“H+/Na+ transport activity normalized” for short) is given as 1.09. The cell viability/% in series [2] stood at 100.0%. Besides, the antibacterial activity result in series [3] was “-”.
With `CNC(=O)C[C@@H](NC(=O)[C@H](C)NC(=O)[C@@H](CC(C)C)NC(=O)[C@H](C)NC(=O)CNC(=O)[C@@H](NC=O)C(C)C)C(=O)N[C@H](C(=O)N[C@@H](C(=O)N[C@@H](Cc1c[nH]c2ccccc12)C(=O)N[C@H](CC(C)C)C(=O)N[C@@H](Cc1c[nH]c2ccccc12)C(=O)N[C@@H](C(=O)N[C@@H](Cc1c[nH]c2ccccc12)C(=O)N[C@H](CC(C)C)C(=O)N[C@@H](Cc1c[nH]c2ccccc12)C(=O)NCCO)C(C)C)C(C)C)C(C)C` [compound 8535] (For-VGA[dL]A[dD](NHMe)V[dV]W[dL]W[dV]W[dL]W-NHCH2CH2OH), the “H+/Na+ transport activity normalized” value in series [1] is reported as 1.28. The molecule also returned a cell viability/% in series [2] of 71.4%. Further, the antibacterial activity entry in series [3] is “-”.
Turning to `CC(C)C[C@@H](NC(=O)[C@H](C)NC(=O)[C@H](NC(=O)[C@H](C)NC(=O)CNC(=O)[C@@H](NC=O)C(C)C)[C@H](C)O)C(=O)N[C@H](C(=O)N[C@H](CC(C)C)C(=O)N[C@@H](Cc1c[nH]c2ccccc12)C(=O)N[C@@H](C(=O)N[C@@H](Cc1c[nH]c2ccccc12)C(=O)N[C@H](CC(C)C)C(=O)N[C@@H](Cc1c[nH]c2ccccc12)C(=O)N[C@@H](C(=O)N[C@@H](Cc1c[nH]c2ccccc12)C(=O)NCCO)C(C)C)[C@H](C)O)C(C)C` [compound 7135] (For-VGA[dT]A[dL]V[dL]W[dT]W[dL]W[dV]W-NHCH2CH2OH), the “H+/Na+ transport activity normalized” value in series [1] amounted to 1.09. The same molecule came in with a cell viability/% in series [2] of 100.0%. Also, the antibacterial activity entry in series [3] is on record as “-”.
On to `CC(C)C[C@@H](NC(=O)[C@H](C)NC(=O)CNC(=O)[C@@H](NC=O)C(C)C)C(=O)N[C@@H](C)C(=O)N[C@@H](C(=O)N[C@H](C(=O)N[C@@H](C(=O)N[C@@H](Cc1c[nH]c2ccccc12)C(=O)N[C@@H](C(=O)N[C@@H](Cc1c[nH]c2ccccc12)C(=O)N[C@H](CC(C)C)C(=O)N[C@@H](Cc1c[nH]c2ccccc12)C(=O)N[C@@H](C(=O)N[C@@H](Cc1c[nH]c2ccccc12)C(=O)NCCO)C(C)C)C(C)C)C(C)C)C(C)C)[C@H](C)O` [compound 10415] (For-VGA[dL]A[dT]V[dV]W[dV]W[dL]W[dV]W-NHCH2CH2OH), for which, in series [1], the “H+/Na+ transport activity normalized” value was determined as 1.02. Moreover, the cell viability/% in series [2] is reported as 100.0%. The antibacterial activity entry in series [3] is recorded as “-”.
Regarding `CC(C)C[C@@H](NC(=O)[C@H](C)NC(=O)CNC(=O)[C@@H](NC=O)C(C)C)C(=O)N[C@@H](C)C(=O)N[C@H](CC(C)C)C(=O)N[C@H](C(=O)N[C@H](CC(C)C)C(=O)N[C@@H](Cc1c[nH]c2ccccc12)C(=O)N[C@@H](C(=O)N[C@@H](Cc1c[nH]c2ccccc12)C(=O)N[C@@H](C(=O)N[C@@H](Cc1c[nH]c2ccccc12)C(=O)N[C@H](CC(C)C)C(=O)N[C@@H](Cc1c[nH]c2ccccc12)C(=O)NCCO)C(C)C)[C@H](C)O)C(C)C` [compound 10442] (For-VGA[dL]A[dL]V[dL]W[dT]W[dV]W[dL]W-NHCH2CH2OH), in series [1], the “H+/Na+ transport activity normalized” value is 1.15. For the same molecule, the cell viability/% in series [2] is 100.0%. The antibacterial activity entry in series [3] is “-”.
Regarding `CC(C)C[C@@H](NC(=O)[C@H](C)NC(=O)CNC(=O)[C@@H](NC=O)C(C)C)C(=O)N[C@@H](C)C(=O)N[C@@H](C(=O)N[C@H](C(=O)N[C@@H](C(=O)N[C@@H](Cc1c[nH]c2ccccc12)C(=O)N[C@@H](C(=O)N[C@@H](Cc1c[nH]c2ccccc12)C(=O)N[C@@H](C(=O)N[C@@H](Cc1c[nH]c2ccccc12)C(=O)N[C@H](CC(C)C)C(=O)N[C@@H](Cc1c[nH]c2ccccc12)C(=O)NCCO)C(C)C)C(C)C)[C@H](C)O)C(C)C)C(C)C` [compound 4778] (For-VGA[dL]A[dV]V[dT]W[dV]W[dV]W[dL]W-NHCH2CH2OH), the “H+/Na+ transport activity normalized” value in series [1] was 1.09. Moreover, the cell viability/% in series [2] is 100.0%. In addition, in series [3], the antibacterial activity entry is “-”.
Turning to `CC(C)C[C@@H](NC(=O)[C@H](C)NC(=O)CNC(=O)[C@@H](NC=O)C(C)C)C(=O)N[C@@H](C)C(=O)N[C@H](CC(C)C)C(=O)N[C@H](C(=O)N[C@H](CC(C)C)C(=O)N[C@@H](Cc1c[nH]c2ccccc12)C(=O)N[C@H](CC(C)C)C(=O)N[C@@H](Cc1c[nH]c2ccccc12)C(=O)N[C@@H](C(=O)N[C@@H](Cc1c[nH]c2ccccc12)C(=O)N[C@@H](C(=O)N[C@@H](Cc1c[nH]c2ccccc12)C(=O)NCCO)C(C)C)[C@H](C)O)C(C)C` [compound 3143] (For-VGA[dL]A[dL]V[dL]W[dL]W[dT]W[dV]W-NHCH2CH2OH), in series [1], the “H+/Na+ transport activity normalized” value stood at 1.04. In series [2], this molecule showed a cell viability/% of 99.9%. In addition, in series [3], the antibacterial activity entry is recorded as “+”.
Take `CNC(=O)C[C@@H](NC(=O)[C@@H](NC(=O)[C@@H](CC(C)C)NC(=O)[C@H](C)NC(=O)[C@@H](CC(C)C)NC(=O)[C@H](C)NC(=O)CNC(=O)[C@@H](NC=O)C(C)C)C(C)C)C(=O)N[C@@H](Cc1c[nH]c2ccccc12)C(=O)N[C@H](CC(C)C)C(=O)N[C@@H](Cc1c[nH]c2ccccc12)C(=O)N[C@@H](C(=O)N[C@@H](Cc1c[nH]c2ccccc12)C(=O)N[C@H](CC(C)C)C(=O)N[C@@H](Cc1c[nH]c2ccccc12)C(=O)NCCO)C(C)C` [compound 173] (For-VGA[dL]A[dL]V[dD](NHMe)W[dL]W[dV]W[dL]W-NHCH2CH2OH): the “H+/Na+ transport activity normalized” value in series [1] is given as 1.07. In series [2], this molecule had a cell viability/% of 100.0%. Moreover, in series [3], the antibacterial activity result was “-”.
In the case of `CNC(=O)C[C@@H](NC(=O)[C@H](C)NC(=O)[C@@H](CC(C)C)NC(=O)[C@H](C)NC(=O)CNC(=O)[C@@H](NC=O)C(C)C)C(=O)N[C@H](C(=O)N[C@@H](C(=O)N[C@@H](Cc1c[nH]c2ccccc12)C(=O)N[C@H](CC(C)C)C(=O)N[C@@H](Cc1c[nH]c2ccccc12)C(=O)N[C@@H](C(=O)N[C@@H](Cc1c[nH]c2ccccc12)C(=O)N[C@H](CC(C)C)C(=O)N[C@@H](Cc1c[nH]c2ccccc12)C(=O)NCCO)C(C)C)C(C)C)C(C)C` [compound 9352] (For-VGA[dL]A[dD](NHMe)V[dV]W[dL]W[dV]W[dL]W-NHCH2CH2OH), the “H+/Na+ transport activity normalized” value in series [1] is listed as 1.18. The cell viability/% in series [2] was found to be 100.0%. Besides, the antibacterial activity result in series [3] was “-”.
